Measured values from ChEMBL document CHEMBL5678807, “A selective jumonji H3K27 demethylase inhibitor modulates the proinflammatory macrophage response” (Nature, 2012).

Assays:
Macrophage [1] = experiment: Antiinflammatory activity in human primary macrophages assessed as effect on LPS-induced TNFSF13 gene expression at 30 uM measured after 2 hrs by RT-PCR array (reference value: 47108 a.u.); format: functional
Macrophage [2] = experiment: Antiinflammatory activity in human primary macrophages assessed as effect on LPS-induced IL8 gene expression at 30 uM measured after 2 hrs by RT-PCR array (reference value: 11155386 a.u.); format: functional
Macrophage [3] = experiment: Antiinflammatory activity in human primary macrophages assessed as effect on LPS-induced INHBA gene expression at 30 uM measured after 2 hrs by RT-PCR array (reference value: 785853 a.u.); format: functional
Macrophage [4] = experiment: Antiinflammatory activity in human primary macrophages assessed as effect on LPS-induced BMP6 gene expression at 30 uM measured after 2 hrs by RT-PCR array (reference value: 1526 a.u.); format: functional
Macrophage [5] = experiment: Antiinflammatory activity in human primary macrophages assessed as effect on LPS-induced LTA gene expression at 30 uM measured after 2 hrs by RT-PCR array (reference value: 11322 a.u.); format: functional
Macrophage [6] = experiment: Antiinflammatory activity in human primary macrophages assessed as effect on LPS-induced TNFSF14 gene expression at 30 uM measured after 2 hrs by RT-PCR array (reference value: 5963 a.u.); format: functional
Macrophage [7] = experiment: Antiinflammatory activity in human primary macrophages assessed as effect on LPS-induced FAM3B gene expression at 30 uM measured after 2 hrs by RT-PCR array (reference value: 996 a.u.); format: functional
Macrophage [8] = experiment: Antiinflammatory activity in human primary macrophages assessed as effect on LPS-induced TGFB2 gene expression at 30 uM measured after 2 hrs by RT-PCR array (reference value: 7625 a.u.); format: functional
Macrophage [9] = experiment: Antiinflammatory activity in human primary macrophages assessed as effect on LPS-induced IL12B gene expression at 30 uM measured after 2 hrs by RT-PCR array (reference value: 17908 a.u.); format: functional
Macrophage [10] = experiment: Antiinflammatory activity in human primary macrophages assessed as effect on LPS-induced IL12A gene expression at 30 uM measured after 2 hrs by RT-PCR array (reference value: 7097 a.u.); format: functional
Macrophage [11] = experiment: Antiinflammatory activity in human primary macrophages assessed as effect on LPS-induced CSF1 gene expression at 30 uM measured after 2 hrs by RT-PCR array (reference value: 287895 a.u.); format: functional
Macrophage [12] = experiment: Antiinflammatory activity in human primary macrophages assessed as effect on LPS-induced IL18 gene expression at 30 uM measured after 2 hrs by RT-PCR array (reference value: 153374 a.u.); format: functional
Macrophage [13] = experiment: Antiinflammatory activity in human primary macrophages assessed as effect on LPS-induced IFNK gene expression at 30 uM measured after 2 hrs by RT-PCR array (reference value: 724 a.u.); format: functional
Histone deacetylase 5 = Histone deacetylase 5 (Homo sapiens, UniProt Q9UQL6); experiment: Inhibition of human HDAC5 by FLINT assay
Chain of Histone deacetylase 5 (Q9UQL6 whole entry): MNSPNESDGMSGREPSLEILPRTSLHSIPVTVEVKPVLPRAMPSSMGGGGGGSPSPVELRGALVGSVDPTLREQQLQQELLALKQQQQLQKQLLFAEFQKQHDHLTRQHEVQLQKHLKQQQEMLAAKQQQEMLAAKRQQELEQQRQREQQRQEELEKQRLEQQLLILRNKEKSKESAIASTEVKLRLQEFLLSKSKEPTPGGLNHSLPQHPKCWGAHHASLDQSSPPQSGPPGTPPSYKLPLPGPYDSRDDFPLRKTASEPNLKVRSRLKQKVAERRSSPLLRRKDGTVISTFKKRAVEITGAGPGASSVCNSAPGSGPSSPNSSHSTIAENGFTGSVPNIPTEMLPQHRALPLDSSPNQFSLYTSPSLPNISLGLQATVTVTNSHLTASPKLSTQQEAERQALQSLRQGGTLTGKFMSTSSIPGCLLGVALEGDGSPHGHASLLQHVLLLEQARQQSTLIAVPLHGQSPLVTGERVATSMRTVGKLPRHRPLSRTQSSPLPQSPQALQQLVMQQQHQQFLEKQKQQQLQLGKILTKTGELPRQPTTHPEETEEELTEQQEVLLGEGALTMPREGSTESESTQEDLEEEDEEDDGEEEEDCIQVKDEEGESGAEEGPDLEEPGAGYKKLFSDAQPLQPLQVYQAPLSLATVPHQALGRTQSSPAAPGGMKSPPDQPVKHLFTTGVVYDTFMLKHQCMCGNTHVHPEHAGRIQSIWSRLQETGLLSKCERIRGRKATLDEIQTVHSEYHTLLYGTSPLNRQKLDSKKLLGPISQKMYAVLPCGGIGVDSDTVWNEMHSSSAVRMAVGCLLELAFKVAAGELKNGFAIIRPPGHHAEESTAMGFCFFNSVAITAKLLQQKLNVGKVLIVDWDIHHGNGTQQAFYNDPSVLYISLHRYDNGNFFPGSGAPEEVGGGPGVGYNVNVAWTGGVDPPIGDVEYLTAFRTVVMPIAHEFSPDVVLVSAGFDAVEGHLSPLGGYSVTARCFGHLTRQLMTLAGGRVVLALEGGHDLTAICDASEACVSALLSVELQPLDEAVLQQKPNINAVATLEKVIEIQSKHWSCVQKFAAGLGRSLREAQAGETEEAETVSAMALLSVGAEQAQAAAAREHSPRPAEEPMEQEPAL

[14] = target: Sodium-dependent noradrenaline transporter (Homo sapiens, UniProt P23975); experiment: Binding affinity to human NET by SPA
D(1A) dopamine receptor = D(1A) dopamine receptor (Homo sapiens, UniProt P21728); experiment: Antagonist activity at human dopamine 1 receptor by TR-FRET assay; format: functional
[15] = target: 5-hydroxytryptamine receptor 1B (Homo sapiens, UniProt P28222); experiment: Agonist activity at human 5-HT1B by SPA; format: functional
[16] = target: Kappa-type opioid receptor (Homo sapiens, UniProt P41145); experiment: Agonist activity at human OPRK-1 by SPA; format: functional
[17] = target: Voltage-gated potassium channel, IKs; KCNQ1(Kv7.1)/KCNE1(MinK) (Homo sapiens, UniProt P51787+P15382); experiment: Blockade of human KCNQ1/KCNE1 by electrophysiology assay; format: protein-complex assay
[18] = Drug uptake in human primary macrophage lysates at 30 uM measured after 1 hr by RP LC-MS/MS analysis; format: ADME, subcellular
[19] = target: T1, Muscarinic acetylcholine receptor M2 (Homo sapiens, UniProt P08172); experiment: Antagonist activity at human CHRM2 by intracellular Ca fluorescence assay; format: functional, cell-based
T1 sequence (P08172 whole entry): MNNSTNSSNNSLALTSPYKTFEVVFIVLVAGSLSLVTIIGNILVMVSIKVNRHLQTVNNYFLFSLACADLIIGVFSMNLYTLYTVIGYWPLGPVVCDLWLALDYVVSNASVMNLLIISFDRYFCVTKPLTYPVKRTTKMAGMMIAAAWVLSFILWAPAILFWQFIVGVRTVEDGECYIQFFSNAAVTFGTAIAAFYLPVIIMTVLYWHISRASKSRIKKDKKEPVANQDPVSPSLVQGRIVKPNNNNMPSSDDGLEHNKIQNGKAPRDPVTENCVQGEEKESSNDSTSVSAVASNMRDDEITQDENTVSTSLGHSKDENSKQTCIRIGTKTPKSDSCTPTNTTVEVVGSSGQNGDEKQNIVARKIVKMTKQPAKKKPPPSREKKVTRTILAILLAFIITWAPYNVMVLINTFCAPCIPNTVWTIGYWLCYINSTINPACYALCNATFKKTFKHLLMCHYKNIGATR

OATP1B1 (SLCO1B1) = OATP1B1 (SLCO1B1) (Homo sapiens, UniProt Q9Y6L6); experiment: Blockade of human OATP1B1 by imaging analysis
Chain of OATP1B1 (SLCO1B1) (Q9Y6L6 whole entry): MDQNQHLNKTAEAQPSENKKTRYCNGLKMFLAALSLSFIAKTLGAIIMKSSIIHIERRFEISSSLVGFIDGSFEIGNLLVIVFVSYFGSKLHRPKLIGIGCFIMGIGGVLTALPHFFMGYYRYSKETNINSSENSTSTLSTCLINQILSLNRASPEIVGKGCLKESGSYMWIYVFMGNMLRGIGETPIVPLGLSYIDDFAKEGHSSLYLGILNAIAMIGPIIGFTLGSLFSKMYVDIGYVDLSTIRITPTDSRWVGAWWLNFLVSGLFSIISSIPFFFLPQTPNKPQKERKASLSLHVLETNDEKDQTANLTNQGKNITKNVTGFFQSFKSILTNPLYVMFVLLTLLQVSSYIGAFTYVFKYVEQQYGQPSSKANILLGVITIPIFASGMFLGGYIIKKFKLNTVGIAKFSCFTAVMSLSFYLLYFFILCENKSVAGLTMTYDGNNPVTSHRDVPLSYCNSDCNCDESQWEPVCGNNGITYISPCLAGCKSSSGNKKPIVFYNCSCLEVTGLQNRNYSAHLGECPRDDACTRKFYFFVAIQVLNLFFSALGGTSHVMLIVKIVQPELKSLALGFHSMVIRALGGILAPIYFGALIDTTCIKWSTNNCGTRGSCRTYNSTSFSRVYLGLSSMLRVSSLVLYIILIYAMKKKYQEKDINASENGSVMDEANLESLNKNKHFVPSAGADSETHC

[20] = target: Beta-2 adrenergic receptor (Homo sapiens, UniProt P07550); experiment: Antagonist activity at human beta2 adrenoceptor by TR-FRET assay; format: functional
[21] = target: Aryl hydrocarbon receptor (Homo sapiens, UniProt P35869); experiment: Agonist activity at human AhR by TR-FRET assay
Chain of Aryl hydrocarbon receptor (P35869 whole entry): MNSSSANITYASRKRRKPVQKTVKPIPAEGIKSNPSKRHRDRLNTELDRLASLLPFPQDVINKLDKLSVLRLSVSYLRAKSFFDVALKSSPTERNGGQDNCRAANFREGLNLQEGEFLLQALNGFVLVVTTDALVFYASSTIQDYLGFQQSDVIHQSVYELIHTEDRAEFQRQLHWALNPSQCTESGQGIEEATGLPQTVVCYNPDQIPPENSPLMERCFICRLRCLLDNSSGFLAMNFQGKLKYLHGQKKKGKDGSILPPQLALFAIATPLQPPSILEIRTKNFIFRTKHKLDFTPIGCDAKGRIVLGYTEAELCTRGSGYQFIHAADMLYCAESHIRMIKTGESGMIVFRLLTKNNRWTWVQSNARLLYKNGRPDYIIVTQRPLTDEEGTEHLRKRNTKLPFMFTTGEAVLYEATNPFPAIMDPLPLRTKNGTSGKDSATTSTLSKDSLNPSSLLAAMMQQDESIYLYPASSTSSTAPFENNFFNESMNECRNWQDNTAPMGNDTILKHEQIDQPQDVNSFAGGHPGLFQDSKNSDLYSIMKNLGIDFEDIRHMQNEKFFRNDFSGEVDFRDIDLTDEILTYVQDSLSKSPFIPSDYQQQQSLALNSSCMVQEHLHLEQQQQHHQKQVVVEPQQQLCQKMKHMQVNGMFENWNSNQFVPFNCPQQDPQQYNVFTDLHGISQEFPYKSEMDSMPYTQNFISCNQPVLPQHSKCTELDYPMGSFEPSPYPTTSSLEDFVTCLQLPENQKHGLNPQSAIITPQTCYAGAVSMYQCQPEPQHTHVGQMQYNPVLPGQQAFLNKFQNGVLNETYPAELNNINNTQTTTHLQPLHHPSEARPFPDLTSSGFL

hERG (KCNH2) = hERG (KCNH2) (Homo sapiens, UniProt Q12809); experiment: Binding affinity to human ERG by FP binding assay; format: toxicity
Chain of hERG (KCNH2) (Q12809 whole entry): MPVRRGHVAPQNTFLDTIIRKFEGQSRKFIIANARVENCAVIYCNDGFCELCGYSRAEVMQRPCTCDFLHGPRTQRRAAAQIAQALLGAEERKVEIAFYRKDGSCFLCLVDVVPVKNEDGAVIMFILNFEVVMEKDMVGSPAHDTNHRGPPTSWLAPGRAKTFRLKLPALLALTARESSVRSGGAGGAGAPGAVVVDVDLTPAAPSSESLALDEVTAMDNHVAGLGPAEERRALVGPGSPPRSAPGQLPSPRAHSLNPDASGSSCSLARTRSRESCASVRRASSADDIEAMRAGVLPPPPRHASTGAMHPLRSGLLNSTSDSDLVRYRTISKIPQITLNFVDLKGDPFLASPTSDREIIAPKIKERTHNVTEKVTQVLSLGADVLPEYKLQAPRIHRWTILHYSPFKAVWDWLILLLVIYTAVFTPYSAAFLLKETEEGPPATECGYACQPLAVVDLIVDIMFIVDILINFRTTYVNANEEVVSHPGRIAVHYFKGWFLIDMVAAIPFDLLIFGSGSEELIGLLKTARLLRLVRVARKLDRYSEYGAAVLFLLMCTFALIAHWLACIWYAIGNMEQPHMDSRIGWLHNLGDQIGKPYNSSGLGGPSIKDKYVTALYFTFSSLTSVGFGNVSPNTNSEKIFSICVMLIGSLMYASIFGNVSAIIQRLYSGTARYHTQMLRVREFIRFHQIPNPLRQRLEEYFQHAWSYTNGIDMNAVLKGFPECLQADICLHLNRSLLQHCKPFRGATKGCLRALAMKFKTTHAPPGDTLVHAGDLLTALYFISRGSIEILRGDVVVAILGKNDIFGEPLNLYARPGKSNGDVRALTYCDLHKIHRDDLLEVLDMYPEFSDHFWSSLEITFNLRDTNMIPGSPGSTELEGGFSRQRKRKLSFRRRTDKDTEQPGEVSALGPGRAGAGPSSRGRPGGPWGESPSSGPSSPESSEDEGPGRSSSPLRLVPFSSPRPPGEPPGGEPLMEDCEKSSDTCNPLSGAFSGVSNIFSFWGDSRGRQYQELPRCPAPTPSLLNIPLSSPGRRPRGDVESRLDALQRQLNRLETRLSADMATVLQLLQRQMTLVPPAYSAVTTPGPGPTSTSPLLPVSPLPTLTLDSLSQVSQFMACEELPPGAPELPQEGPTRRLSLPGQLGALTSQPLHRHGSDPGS

[22] = target: T2, 5-hydroxytryptamine receptor 2C (Homo sapiens, UniProt P28335); experiment: Antagonist activity at human 5-HT2C by intracellular Ca luminescence assay; format: functional, cell-based
T2 sequence (P28335 whole entry): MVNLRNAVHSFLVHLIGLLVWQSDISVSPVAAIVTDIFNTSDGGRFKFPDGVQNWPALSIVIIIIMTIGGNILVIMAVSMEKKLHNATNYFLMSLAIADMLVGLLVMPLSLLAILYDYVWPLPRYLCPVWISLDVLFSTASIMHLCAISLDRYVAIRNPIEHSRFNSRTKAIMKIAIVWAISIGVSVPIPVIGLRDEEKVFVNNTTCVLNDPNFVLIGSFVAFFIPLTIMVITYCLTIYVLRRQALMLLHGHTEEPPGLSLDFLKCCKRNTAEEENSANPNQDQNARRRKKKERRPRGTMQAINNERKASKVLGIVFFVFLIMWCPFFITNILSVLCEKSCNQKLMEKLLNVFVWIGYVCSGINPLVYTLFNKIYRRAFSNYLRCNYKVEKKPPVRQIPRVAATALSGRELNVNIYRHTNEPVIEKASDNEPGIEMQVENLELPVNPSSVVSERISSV

[23] = Agonist activity at human 5-HT3 by intracellular Ca fluorescence assay; format: cell-based
Histone deacetylase 7 = Histone deacetylase 7 (Homo sapiens, UniProt Q8WUI4); experiment: Inhibition of human HDAC7 by FLINT assay
Chain of Histone deacetylase 7 (Q8WUI4 whole entry): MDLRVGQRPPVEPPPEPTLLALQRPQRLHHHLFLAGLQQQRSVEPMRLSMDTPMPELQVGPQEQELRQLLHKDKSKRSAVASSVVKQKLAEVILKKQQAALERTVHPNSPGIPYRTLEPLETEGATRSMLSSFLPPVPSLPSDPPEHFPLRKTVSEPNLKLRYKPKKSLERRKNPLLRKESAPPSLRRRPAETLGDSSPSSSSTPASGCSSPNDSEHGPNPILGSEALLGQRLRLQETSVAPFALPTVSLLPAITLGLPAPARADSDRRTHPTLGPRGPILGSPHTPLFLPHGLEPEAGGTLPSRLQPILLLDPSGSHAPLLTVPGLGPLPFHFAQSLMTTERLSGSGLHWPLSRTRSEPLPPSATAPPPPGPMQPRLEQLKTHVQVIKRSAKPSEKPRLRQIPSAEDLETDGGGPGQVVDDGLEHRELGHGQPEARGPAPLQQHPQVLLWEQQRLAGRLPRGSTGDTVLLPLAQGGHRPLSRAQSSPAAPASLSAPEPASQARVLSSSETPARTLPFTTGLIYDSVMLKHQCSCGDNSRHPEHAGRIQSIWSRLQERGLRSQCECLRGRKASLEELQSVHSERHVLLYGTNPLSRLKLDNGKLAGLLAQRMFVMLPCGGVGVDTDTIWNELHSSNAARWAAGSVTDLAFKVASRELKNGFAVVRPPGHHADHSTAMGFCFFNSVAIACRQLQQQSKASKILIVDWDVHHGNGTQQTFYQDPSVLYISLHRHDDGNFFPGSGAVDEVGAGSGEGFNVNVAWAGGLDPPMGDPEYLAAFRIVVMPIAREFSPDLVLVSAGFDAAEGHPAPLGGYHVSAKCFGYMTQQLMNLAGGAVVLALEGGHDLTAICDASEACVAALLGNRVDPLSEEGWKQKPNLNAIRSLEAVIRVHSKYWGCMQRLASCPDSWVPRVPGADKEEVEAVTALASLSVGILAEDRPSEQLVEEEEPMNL

| Structure (SMILES) | Activity (Macrophage [1]) | Activity (Macrophage [2]) | Activity (Macrophage [3]) | Activity (Macrophage [4]) | Activity (Macrophage [5]) | Activity (Macrophage [6]) | Activity (Macrophage [7]) | Activity (Macrophage [8]) | Activity (Macrophage [9]) | Activity (Macrophage [10]) | Activity (Macrophage [11]) | Activity (Macrophage [12]) | Activity (Macrophage [13]) | XC50 (Histone deacetylase 5) | XC50 [14] | XC50 (D(1A) dopamine receptor) | XC50 [15] | XC50 [16] | XC50 [17] | Drug uptake [18] | also measured |
| --- | --- | --- | --- | --- | --- | --- | --- | --- | --- | --- | --- | --- | --- | --- | --- | --- | --- | --- | --- | --- | --- |
| CCOC(=O)CCNc1cc(N2CCc3ccccc3CC2)nc(-c2ccccn2)n1 | 43866 a.u. | 1556795 a.u. | 157533 a.u. | 293 a.u. | 708 a.u. | 9678 a.u. | 9 a.u. | 3422 a.u. | 3068 a.u. | 304 a.u. | 140386 a.u. | 74923 a.u. | 3510 a.u. |  |  |  |  |  |  |  |  |
| O=C(O)CCNc1cc(N2CCc3ccccc3CC2)nc(-c2ccccn2)n1 |  |  |  |  |  |  |  |  |  |  |  |  |  | > 300 µM | > 100 µM | > 32 µM | > 32 µM | > 100 µM | > 25 µM | 1.6 µM | XC50 [19]: > 16 µM; XC50 (OATP1B1 (SLCO1B1)): > 25 µM; XC50 [20]: > 32 µM; XC50 [21]: > 100 µM; XC50 (hERG (KCNH2)): 32 µM; XC50 [22]: > 40 µM; XC50 [23]: > 50 µM; XC50 (Histone deacetylase 7): > 300 µM |
| O=C(O)CCNc1cc(N2CCc3ccccc3CC2)nc(-c2cccnc2)n1 |  |  |  |  |  |  |  |  |  |  |  |  |  | > 300 µM | > 100 µM | > 32 µM | > 32 µM | > 100 µM | > 25 µM | 7.8 µM | XC50 [19]: > 16 µM; XC50 (OATP1B1 (SLCO1B1)): 20 µM; XC50 [20]: > 32 µM; XC50 [21]: 0.32 µM; XC50 (hERG (KCNH2)): > 100 µM; XC50 [22]: > 40 µM; XC50 [23]: > 50 µM; XC50 (Histone deacetylase 7): > 300 µM |
| CCOC(=O)CCNc1cc(N2CCc3ccccc3CC2)nc(-c2cccnc2)n1 | 39565 a.u. | 5618140 a.u. | 558833 a.u. | 1399 a.u. | 9224 a.u. | 5331 a.u. | 466 a.u. | 4816 a.u. | 17395 a.u. | 5021 a.u. | 211785 a.u. | 185197 a.u. | 339 a.u. |  |  |  |  |  |  |  |  |
